Data taken from patent EP1285918A1, “C7 Ester substituted taxanes as antitumor agents” (Florida State University Research Foundation, Inc., priority 2001, dated 2003).
Where two headings read alike, the source gives them in different places.

Legend:
[1] = tested on: VM46 Human Colon Carcinoma Xenografts
Procedure, shortened: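 Female NCr-nude mice bearing subcutaneous VM46 colon carcinoma fragments, six per group, given compounds i.v. once on Day 1 at estimated MTD; vehicle i.v. for controls. Endpoints to Day 64: mean days of survival (tumor reaching 1.5 g), toxic deaths, survivors, complete/partial responses and stable disease.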

[2] = tested on: A375 Human Melanoma Xenografts; details: A375; for Mean Score: tumor score 1 to 10, group mean
Procedure, shortened: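 Female NCr-nude mice carrying subcutaneous flank A375 implants (1 mm^3), six per group (Taxotere seven). Single i.v. dose on Day 1 at each agent's estimated MTD (Taxotere 70 mg/kg), vehicle i.v. for controls; study ended Day 60. Survival days counted to 2.0 g tumor; complete response = non-palpable tumor at study end, partial = smaller than on Day 1.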

[3] = tested on: DU 145 Human Prostate Carcinoma Xenografts; details: DU145; for Mean Score: tumor score 1 to 10, group mean
Procedure, shortened: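 Male NCr-nude mice bearing subcutaneous DU145 fragments (five per group) received one i.v. dose at each agent's estimated MTD on Day 1, with vehicle controls; the study ran to Day 91. Survival was counted until tumour reached 1.5 g. Complete or partial response was scored by palpability or shrinkage below Day-1 size.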

[4] = tested on: Panc-1 Human Pancreatic Carcinoma Xenografts
Procedure, shortened: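 Female NCr-nude mice with subcutaneous flank Panc-1 fragments, six per group, dosed i.v. once on Day 1 at estimated MTD (Taxotere 70 mg/kg); vehicle controls. Survival taken as days until tumor reached 1.5 g; complete response = nonpalpable tumor at Day 63, partial = smaller than Day 1 size.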

[5] = tested on: MX-1 Human Breast Carcinoma Xenograft; details: for MDS (n): days until tumor reached 1.5 g
Description: The antitumor compounds were prepared in the following vehicle: 5% ethanol, 5% Cremophor and 90% isotonic saline.
Female Nu/Nu mice (12-13 weeks of age; implanted with 1 mm^3 MX-1 human breast carcinoma fragments in the flank) were sorted into treatment groups of six mice each (MX-1 tumor size ranges and group mean MX-1 tumor size ranges were 56-138 mg and 68-74 mg, respectively). […] All treatments were administered as a single oral bolus on Day 1, and the study was terminated on Day 60.
The mean days of survival is the number of days after which an MX-1 neoplasm reached a size of 1.5 g and the animal was euthanized. A complete response is obtained if the tumor is not palpable at the end of the study. A partial response is obtained if the tumor shrinks to a size smaller than its size on Day 1 of the study.

[6] = 15 mg/kg i.p. qd x 5, 6 mice/group, study end Day 64
[7] = 24 mg/kg i.v. qd x 1, 6 mice/group, study end Day 64
[8] = VM46, Taxol 24 mg/kg i.v. qd x 1, 6 mice, Day 64
[9] = Taxol i.p. 18 mg/kg qd x 5, 6 mice, Day 60
[10] = i.v. qd x 1 (mg/kg: Taxol 24, 1351 107.6, 1393 72.6, 1401 107.6, 1418 107.6, 1424 195.1, Taxotere 70), Day 60
[11] = Taxol i.p. 18 mg/kg qd x 5, 5 mice, Day 91
[12] = i.v. qd x 1 (mg/kg: Taxol 24, 1351 107.6, 1393 72.6, 1401 107.6, 1418 107.6, 1424 195.1), 5 mice/group, Day 91
[13] = 15 mg/kg i.p. qd x 5, 6 mice/group, study end Day 63
[14] = 24 mg/kg i.v. qd x 1 as two split doses, 6 mice/group, study end Day 63
[15] = 28 mg/kg single oral bolus Day 1, 6 mice/group, study end Day 60
[16] = 40 mg/kg single oral bolus Day 1, 6 mice/group, study end Day 60

## CC(=O)O[C@H]1C(=O)[C@@]2(C)[C@H]([C@H](OC(=O)c3ccccc3)[C@]3(O)C[C@H](OC(=O)[C@H](O)[C@@H](NC(=O)c4ccccc4)c4ccccc4)C(C)=C1C3(C)C)[C@]1(OC(C)=O)CO[C@@H]1C[C@@H]2O [Taxol, paclitaxel, reference compound]
[1]; [6]
  Complete Response: 0
  Mean Score: 1.8 ± 1.3
  Partial Response: 1
  Stable Disease: 0
  Survivors: 1
  Toxic Deaths: 3
[1]; 15 mg/kg i.p. qd x 5, 6 mice/group, study end Day 64, days until tumor reached 1.5 g
  MDS (n): 36.1 ± 12.2 (2) days
[1]; [7]
  Complete Response: 0
  Mean Score: 3.8 ± 1.4
  Partial Response: 1
  Stable Disease: 1
  Survivors: 2
  Toxic Deaths: 0
[1]; [8]
  Partial Response: one
  Stable Disease: one
[1]; VM46, Taxol i.p. 15 mg/kg qd x 5
  toxicity: excessively toxic
[1]; VM46, Taxol i.p. 15 mg/kg qd x 5, 6 mice
  mortalities: three
[2]; Taxol i.p. 18 mg/kg qd x 5
  toxicity: highly toxic
  Mean Score: 0±0
[2]; [9]
  Complete Response: 0
  Partial Response: 0
  Stable Disease: 0
  Survivors: 0
[2]; i.v. qd x 1 (mg/kg: Taxol 24, 1351 107.6, 1393 72.6, 1401 107.6, 1418 107.6, 1424 195.1, Taxotere 70), 2.0 g cut-off, Day 60
  MDS (n): 18.1 ± 0.6 (4) days
[2]; [10]
  Complete Response: 0
  Partial Response: 0
  Stable Disease: 0
  Survivors: 0
  Toxic Deaths: 2
[2]; i.v. qd x 1 (mg/kg: Taxol 24, 1351 107.6, 1393 72.6, 1401 107.6, 1418 107.6, 1424 195.1, Taxotere 70)
  Mean Score: 0.8 ± 0.3
[2]; i.v. qd x 1 (mg/kg: Taxol 24, 1393 72.6, 1418 107.6, Taxotere 70)
  survival extension compared to Group 1 controls: 26%
[3]; Taxol 24 mg/kg i.v. qd x 1
  increase in survival compared to Group 1 controls: 9%
[3]; Taxol i.p. 18 mg/kg qd x 5
  toxicity: highly toxic
  weight loss: more than 20%
  Mean Score: 0 ± 0
[3]; [11]
  Complete Response: 0
  Partial Response: 0
  Stable Disease: 0
  Survivors: 0
[3]; i.v. qd x 1 (mg/kg: Taxol 24, 1351 107.6, 1393 72.6, 1401 107.6, 1418 107.6, 1424 195.1), 5 mice/group, 1.5 g cut-off, Day 91
  MDS (n): 37.4 ± 8.9 (3) days
[3]; [12]
  Complete Response: 0
  Partial Response: 0
  Stable Disease: 1
  Survivors: 1
[3]; i.v. qd x 1 (mg/kg: Taxol 24, 1351 107.6, 1393 72.6, 1401 107.6, 1418 107.6, 1424 195.1)
  Mean Score: 2 ± 1
[4]; [13]
  Complete Response: 0
  Mean Score: 1.2 ± 1.2
  Partial Response: 1
  Stable Disease: 0
  Survivors: 1
  Toxic Deaths: 4
[4]; [14]
  Complete Response: 0
  Mean Score: 2.2 ± 0.8
  Partial Response: 0
  Stable Disease: 1
  Survivors: 1
  Toxic Deaths: 1
[4]; 24 mg/kg i.v. qd x 1 as two split doses, 6 mice/group, study end Day 63, days until tumor reached 1.5 g
  MDS (n): 34.7 ± 3.4 days
[4]; Panc-1, Taxol i.p. 15 mg/kg qd x 5, 6 mice
  Toxic Deaths: four
[4]; Panc-1, i.v. qd x 1 (mg/kg: Taxol 24, 1351 75.32, 1393 72.6, 1401 107.6, 1418 107.6, 1424 195.1), 6 mice/group
  Toxic Deaths: One
[4]; Panc-1, i.v. qd x 1 (mg/kg: Taxol 24, 1351 75.32, 1393 72.6, 1401 107.6, 1418 107.6, 1424 195.1), 6 mice/group, 1.5 g cut-off, Day 63
  MDS: 34.7 days
[4]; Panc-1, i.v. qd x 1 (mg/kg: Taxol 24, 1393 72.6, 1418 107.6), 6 mice/group, Day 63
  Stable Disease: one
[5]; [15]
  Complete Responses: 0
  Partial Responses: 0
  Stable Disease: 1
  Survivors: 1
  Toxic Deaths: 0
  MDS (n): 23.1 ± 1.7 (5) days
[5]; [16]
  Complete Responses: 0
  Partial Responses: 1
  Stable Disease: 0
  Survivors: 1
  Toxic Deaths: 0
  MDS (n): 23.2 ± 1.3 (5) days
[5]; MX-1, single oral bolus, Taxol 40 and 28 mg/kg groups together, Day 60
  Stable Disease: one
[5]; MX-1, single oral bolus, Taxol 40 and 28 mg/kg groups together, Taxotere 100 and 70 mg/kg groups together, Day 60
  Partial Response: One
